We go through seven molecules from patent publication US5843983A, “Diphenylethane compounds containing a saturated heterocyclic group, their preparation, and their therapeutic use” (Sankyo Company, Limited, priority 1996, dated 1998).

Test [1] has as its system smooth muscle contraction. Put plainly: Vasoconstriction experiment (serotonin-induced contraction of tail artery helical strip). It counts as cell-based, Male SD rats. To be noted: rat tail artery strip, 3×10^-6 M serotonin, Tyrode's solution, 37° C.; read-out: IC50 (concentration required to reduce the tension to 50%). The method, then:
Vasoconstriction experiment
Effects on smooth muscle contraction were examined by the method of Van Neuten et al. [J. Pharmacol. Exp. Ther., 218, 217-230, (1981)]. Male SD rats, each weighing approximately 500 g, were sacrificed by exsanguination, and the tail artery was excised from each animal. Adherent tissues were removed from the artery for preparation of a helical strip of dimensions about 2×20 mm. The strip was suspended in an organ bath kept at 37° C. and containing 10 ml of Tyrode's solution saturated with a mixed gas (95% O2 /5% CO2) and equilibrated for 1 hour before used in the experiment. An initial tension of 0.5 g was loaded on the helical strip, and changes in tension were recorded in an isometric manner via a transducer. 3×10^-6 M of serotonin was added to the bath as a vasoconstriction inducer, and, after stabilisation of the contractile response of the specimen, a test compound was added to the bath so as to increase the level of test compound in the bath progressively, whilst monitoring the tension in the helical strip. 10^-4 M of papaverine was then added. On the assumption that the tension before the addition of each test compound was 100% and that the tension 5 minutes after the addition of papaverine was 0%, the concentration of each test compound required to reduce the tension to 50% (IC50) was calculated from the least square regression line.

For a further test, the target named is serotonin receptors. Put plainly: Receptor-binding experiment. Details: species or system Male Wistar rats. The conditions noted are these: rat cerebral cortex membrane, ^3 H-ligand, 30° C., 1 hour; read-out: IC50 (concentration required to inhibit the binding by 50%). The method, then: Receptor-binding experiment
The method of Leysen et al. [Mol. Pharmacol., 21, 301-314, (1982)] was employed. Male Wistar rats (body weight 280-320 g) were used in this experiment. The head of each animal was severed, and the cerebral cortex and corpus striatum were excised. These organs were frozen on dry ice and stored at -80° C. until used. Binding to serotonin receptors was examined using the cerebral cortex. To prepare a membrane suspension, the frozen brain tissue was homogenised with 50 mM Tris-HCl buffer (pH 7.7) using Polytron PT-20, and the homogenate was centrifuged at 49,000×gfor 10 minutes. The resulting pellet was suspending in a Tris buffer, centrifuged, and resuspended in Tris buffer. The content of protein in the membrane suspension thus prepared was determined, and adjusted to 0.57 mg/protein/ml with Tris buffer. The membrane suspension was stored at -80° C.
The receptor-binding reaction was started by adding 440 μl of the membrane suspension to a test tube containing 50 μl of ^3 H-ligand and 10 μl of each test compound (dissolved in dimethyl sulfoxide). After incubation at 30° C. for 1 hour, the reaction was terminated by filtration under reduced pressure using a Whatman GF/B glass filter. The filter was washed with ice-cooled Tris buffer (4 ml×2 times). The filter was then treated with ACS-II, and its radioactivity was determined with a liquid scintillation counter. Non-specific binding was determined in the presence of 20 μM atropine. The percent inhibition of receptorbinding was determined from the percent binding in the presence of each test compound. The concentration of each test compound required to inhibit the binding by 50% (IC50) was calculated from the least square regression line.

In a further test the target is T1, squalene synthase (Rattus norvegicus, UniProt Q02769).
T1 construct: The reaction was started by the addition of rat liver microsome suspension; from tissue; host or cells: rat liver microsomes
T1 sequence (Q02769 1-416): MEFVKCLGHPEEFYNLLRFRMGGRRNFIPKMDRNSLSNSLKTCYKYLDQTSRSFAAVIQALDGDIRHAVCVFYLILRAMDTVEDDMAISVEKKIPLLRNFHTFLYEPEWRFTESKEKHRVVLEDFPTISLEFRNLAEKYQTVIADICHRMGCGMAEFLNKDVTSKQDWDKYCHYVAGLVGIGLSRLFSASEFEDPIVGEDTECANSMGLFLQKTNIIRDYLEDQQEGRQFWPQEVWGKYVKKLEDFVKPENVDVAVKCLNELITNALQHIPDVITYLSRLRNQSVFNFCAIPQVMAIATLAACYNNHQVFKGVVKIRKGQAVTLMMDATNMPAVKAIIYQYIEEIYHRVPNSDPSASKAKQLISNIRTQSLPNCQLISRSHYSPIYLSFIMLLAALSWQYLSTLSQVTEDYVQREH
Put plainly: Squalene synthase inhibitory activity. It counts as biochemical. The conditions noted are these: rat liver microsome, 10 μM [4-^14 C]-FPP, pH 7.5, 37° C., 20 minutes; read-out: IC50 (50% inhibitory concentration). The method, then:
Squalene synthase inhibitory activity Squalene synthase inhibitory activity was determined by the method described in U.S. Pat. […] Anal. Biochem. 203, 310 (1992). […] The reaction was started by the addition of rat liver microsome suspension. The reaction solution was then incubated in a thermostat at 37° C. for 20 minutes, after which the reaction was terminated by the addition of 100 μl of a 1:1 by volume mixture of 40% KOH (aqueous potassium hydroxide) and 95% EtOH (aqueous ethanol). The reaction solution thus treated was further heated at 65° C. for 30 minutes, and then cooled. Squalene was extracted with 2 ml of hexane. One milliliter of the resulting hexane layer was mixed with 10 ml of scintillator, and radioactivity was determined using a liquid scintillation counter. The inhibitory activity of each test compound for the enzyme was determined by co-incubation of the sample containing the test compound with the enzyme sample and substrate in the reaction solution.

Where a name gives a salt, the structure may show the parent alone.

For the molecule `COc1cccc(CCc2cc(F)ccc2OCC[C@@H]2C[C@@H](O)CN2C)c1` [Example 1, (2R,4R)-2-[2-{4-Fluoro-2-[2-(3-methoxyphenyl)ethyl]phenoxy}ethyl]-4-hydroxy-1-methylpyrrolidine hydrochloride], the IC50 in test [1] is 1.9 nM; on serotonin receptors it was 1 nM.
For `CN1C[C@H](O)C[C@H]1CCOc1ccc(F)cc1CCc1ccc(F)cc1` [Example 2, (2R,4R)-2-[2-{4-Fluoro-2-[2-(4-fluorophenyl)ethyl]phenoxy}ethyl]-4-hydroxy-1-methylpyrrolidine hydrochloride] the same measures were 2 nM and 0.8 nM.
As for `COc1cc(CCc2cc(F)ccc2OCC[C@@H]2C[C@@H](O)CN2C)ccc1F` [Example 4, (2R,4R)-2-[2-{4-Fluoro-2-[2-(4-fluoro-3-methoxyphenyl)ethyl]phenoxy}ethyl]-4-hydroxy-1-methylpyrrolidine hydrochloride], the figures for the IC50 (in test [1]; at serotonin receptors; on squalene synthase) were 2.3 nM, 0.65 nM and 1600 nM, respectively.
As to `O[C@H]1CN[C@H](CCOc2ccc(F)cc2CCc2ccccc2)C1` [Example 5, (2R,4R)-2-{2-[4-Fluoro-2-(2-phenylethyl)phenoxy]ethyl}-4-hydroxypyrrolidinehydrochloride], the IC50 on squalene synthase amounted to 740 nM.
On to `CN1C[C@H](O)C[C@H]1CCOc1ccc(F)cc1CCc1ccccc1` [Example 6, (2R,4R)-2-{2-[4-Fluoro-2-(2-phenylethyl)phenoxy]ethyl}-4-hydroxy-1-methylpyrrolidine hydrochloride], for which the IC50 is 2.2 nM in test [1], 3.4 nM at serotonin receptors and 1100 nM at squalene synthase.
For `CN1C[C@H](O)C[C@H]1CCOc1ccc(F)cc1CCc1ccc(F)c(F)c1` [Example 7, (2R,4R)-2-[2-{2-[2-(3,4-Difluorophenyl)ethyl]-4-fluorophenoxy}ethyl]-4-hydroxy-1-methylpyrrolidine hydrochloride], the IC50 in test [1] turned out to be 2.6 nM; at serotonin receptors, 0.75 nM.
For the molecule `Cc1ccc(OCC[C@@H]2C[C@@H](O)CN2C)c(CCc2ccccc2)c1` [Example 12, (2R,4R)-4-Hydroxy-1-methyl-2-{2-[4-methyl-2-(2-phenylethyl)phenoxy]ethyl}pyrrolidine hydrochloride], the IC50 at squalene synthase came out at 1500 nM.
